Test results published in patent US9464084B2, “P2X7 modulators” (Janssen Pharmaceutica NV, priority 2013, dated 2016).

How the values were obtained:
rat P2X7 [1] = target: T1, rat P2X7 (Rattus norvegicus (Rat), UniProt Q64663); assay: Radioligand binding, tritiated A-804598, rat P2X7-1321N1 cell membranes; conditions: 1 hour at 4° C.
Procedure: (§1) On the day of the experiment, cell membrane preparations were made according to standard published methods. […] The assay was terminated by filtration (GF/B filters pre-soaked with 0.3% PEI) and washed with washing buffer (Tris-HCl 50 mM). The IC50 generated in the binding assay was corrected for tracer concentration and affinity of the tracer to derive at the affinity (Ki) of the test compounds.

P2X7 [2] = target: T2, P2X7 (Homo sapiens (Human), UniProt Q99572); assay: Ca2+ flux (FLIPR) in 1321N1 cells expressing recombinant human P2X7 channel; assay type: cell-based; conditions: 250 μM BzATP;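 further: Calcium-4 dye-loaded cells exposed to compound for 30 min before agonist addition, fluorescence change read 180 s after agonist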
T2 sequence (Q99572 whole entry): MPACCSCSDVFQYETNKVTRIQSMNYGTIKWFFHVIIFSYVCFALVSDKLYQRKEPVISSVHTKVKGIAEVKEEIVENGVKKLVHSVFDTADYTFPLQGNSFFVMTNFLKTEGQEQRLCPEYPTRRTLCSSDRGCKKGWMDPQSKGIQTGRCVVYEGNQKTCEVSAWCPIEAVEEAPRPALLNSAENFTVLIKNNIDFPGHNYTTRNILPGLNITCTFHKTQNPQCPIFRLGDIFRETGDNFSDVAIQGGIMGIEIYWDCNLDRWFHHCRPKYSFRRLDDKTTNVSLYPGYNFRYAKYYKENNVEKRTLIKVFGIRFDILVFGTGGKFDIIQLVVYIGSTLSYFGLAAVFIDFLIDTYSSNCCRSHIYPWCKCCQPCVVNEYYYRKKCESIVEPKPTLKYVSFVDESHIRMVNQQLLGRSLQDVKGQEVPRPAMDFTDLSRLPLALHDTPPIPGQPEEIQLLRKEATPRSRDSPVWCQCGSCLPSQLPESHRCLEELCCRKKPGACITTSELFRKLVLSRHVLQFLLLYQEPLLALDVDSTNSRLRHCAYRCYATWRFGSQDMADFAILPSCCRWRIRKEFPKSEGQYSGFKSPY

rat P2X7 [3] = target: T1, rat P2X7; assay: Ca2+ flux (FLIPR) in 1321N1 cells expressing recombinant rat P2X7 channel; assay type: cell-based; conditions: 250 μM BzATP;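 further: Calcium-4 dye fluorescence change read 180 s after agonist addition, following 30 min cell preincubation with test compound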
P2X7 [4] = target: T2, P2X7; assay: Radioligand binding, tritiated A-804598, human P2X7-1321N1 cell membranes; conditions: 1 hour at 4° C.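 Further: ki obtained from the binding IC50 after correction for tracer concentration and tracer affinity.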
Procedure: as §1

P2X7 [5] = target: T2, P2X7; assay: P2X7 antagonism in human PBMCs (LPS + Bz-ATP induced IL-1β release, ELISA); assay type: cell-based; conditions: LPS 30 ng/ml, Bz-ATP 0.5 mM; for PBMC 10 μM (% control): compound 10 μM;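 on all read-outs here: PBMCs from donor human blood, with a further 1.5 h incubation of the cells in the assay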
P2X7 [6] = target: T2, P2X7; assay: P2X7 antagonism in human whole blood (LPS + Bz-ATP induced IL-1β release, ELISA); assay type: cell-based; conditions: LPS 30 ng/ml, Bz-ATP 1 mM
Procedure: Human blood was collected using a blood donor program. PBMCs were isolated from blood using a Ficoll density gradient technique. Briefly, blood was laid on Ficoll solution and centrifuged at RT for 20 minutes at 2000 rpm. The buffy layer (between red blood cells and plasma) was carefully collected by aspiration, washed with PBS and centrifuged again at 1500 rpm for 15 minutes. The resulting cell pellet was washed and plated on 96 well-plates for experiments. For the Mouse/Human Whole Blood experiments, 150 μl of either mouse or human blood was platted on 96 well-plates. Lipopolysaccharide (LPS) (30 ng/ml) was added to each well and incubated for 1 hour. Test compounds were then added and incubated for 30 minutes. The P2X7 agonist, 2′(3′)-O-(4-benzoylbenzoyl) adenosine 5′ triphosphate (Bz-ATP) was then added at a final concentration of 0.5 mM (PBMC) or 1 mM (blood). Cells were incubated for an additional 1.5 hours. At that point, supernatant was collected and stored for IL-1β assay using manufacturer's protocol for enzyme-linked immunosorbent assay (ELISA). Data was expressed as percent control, where control is defined as the difference in IL-1β release in LPS+Bz-ATP samples and LPS only samples. Data was plotted as response (% control) versus concentration to generate IC50 values.

T1 sequence (Q64663 whole entry): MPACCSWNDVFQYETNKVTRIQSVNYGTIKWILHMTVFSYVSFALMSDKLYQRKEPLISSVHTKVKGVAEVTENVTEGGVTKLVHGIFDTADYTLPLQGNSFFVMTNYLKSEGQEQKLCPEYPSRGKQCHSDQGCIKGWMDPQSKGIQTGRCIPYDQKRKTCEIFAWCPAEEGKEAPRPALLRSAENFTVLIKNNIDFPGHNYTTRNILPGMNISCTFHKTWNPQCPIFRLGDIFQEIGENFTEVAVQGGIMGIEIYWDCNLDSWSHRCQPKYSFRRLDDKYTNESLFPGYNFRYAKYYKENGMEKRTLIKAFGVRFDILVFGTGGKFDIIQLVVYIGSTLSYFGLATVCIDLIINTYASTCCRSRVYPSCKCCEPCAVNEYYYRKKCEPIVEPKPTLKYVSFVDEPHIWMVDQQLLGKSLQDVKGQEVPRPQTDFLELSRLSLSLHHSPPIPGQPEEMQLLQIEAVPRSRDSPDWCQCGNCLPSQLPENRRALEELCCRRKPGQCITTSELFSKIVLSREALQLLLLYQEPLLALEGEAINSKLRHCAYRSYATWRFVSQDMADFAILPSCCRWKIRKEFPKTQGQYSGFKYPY

| SMILES | Ki (rat P2X7 [1]) [nM] | IC50 (P2X7 [2]) [nM] | IC50 (rat P2X7 [3]) [nM] | Ki (P2X7 [4]) [nM] | PBMC 10 μM (% control) (P2X7 [5]) | IC50 (P2X7 [6]) [nM] | PBMC 1 μM (% control) (P2X7 [5]; compound 1 μM) |
| --- | --- | --- | --- | --- | --- | --- | --- |
| C[C@H]1c2nnn(-c3ccn(C)n3)c2CCN1C(=O)c1cccc(C(F)(F)F)c1Cl (single isomer, unassigned) [Example 170, (S*)-(2-Chloro-3-(trifluoromethyl)phenyl)(4-methyl-1-(1-methyl-1H-pyrazol-3-yl)-6,7-dihydro-1H-[1,2,3]triazolo[4,5-c]pyridin-5(4H)-yl)methanone] | 3.2 | 8.9 | 10.2 | 20 | −5.7 |  |  |
| C[C@H]1c2nnn(-c3ccn(CCF)n3)c2CCN1C(=O)c1cccc(C(F)(F)F)c1Cl (single isomer, unassigned) [Example 172, (S*)-(2-Chloro-3-(trifluoromethyl)phenyl)(1-(1-(2-fluoroethyl)-1H-pyrazol-3-yl)-4-methyl-6,7-dihydro-1H-[1,2,3]triazolo[4,5-c]pyridin-5(4H)-yl)methanone] | 5 |  | 5.4 |  | −6.0 |  |  |
| O=C(c1cccc(C(F)(F)F)c1F)N1CCc2c(nnn2-c2ncccn2)C1 [Example 66, 5-{[2-Fluoro-3-(trifluoromethyl)phenyl]carbonyl}-1-pyrimidin-2-yl-4,5,6,7-tetrahydro-1H-[1,2,3]triazolo[4,5-c]pyridine] |  | 17.4 | 206 | 15.8 | 2.7 | 363 |  |
| O=C(c1cccc(Cl)c1Cl)N1CCc2c(nnn2-c2ncccn2)C1 [Example 67, 5-[(2,3-Dichlorophenyl)carbonyl]-1-pyrimidin-2-yl-4,5,6,7-tetrahydro-1H-[1,2,3]triazolo[4,5-c]pyridine] |  | 3 | 78.9 | 7.9 | 6.5 | 158 |  |
| O=C(c1cccc(Cl)c1Cl)N1CCc2c(nnn2-c2cnccn2)C1 [Example 70, 5-[(2,3-Dichlorophenyl)carbonyl]-1-pyrazin-2-yl-4,5,6,7-tetrahydro-1H-[1,2,3]triazolo[4,5-c]pyridine] |  | 7.5 | 1330 | 12.6 | 10.6 | 501 |  |
| O=C(c1cccc(C(F)(F)F)c1Cl)N1CCc2c(-c3ccccc3)n[nH]c2C1 [Example 99, (2-Chloro-3-(trifluoromethyl)phenyl)(3-phenyl-4,5-dihydro-1H-pyrazolo[3,4-c]pyridin-6(7H)-yl)methanone] | 741 | 11.5 | 195 | 81.3 |  |  | 7.0 |
| O=C(c1ccc(F)c(Cl)c1Cl)N1CCc2c(nnn2-c2ccccn2)C1 [Example 130, (2,3-Dichloro-4-fluorophenyl)(1-(pyridin-2-yl)-6,7-dihydro-1H-[1,2,3]triazolo[4,5-c]pyridin-5(4H)-yl)methanone] |  | 3.6 | 154 | 50.1 | 3.7 | 501 |  |
| O=C(c1cccc(C(F)(F)F)c1Cl)N1CCc2c(nnn2-c2cc(F)ccn2)C1 [Example 131, (2-Chloro-3-(trifluoromethyl)phenyl)(1-(4-fluoropyridin-2-yl)-6,7-dihydro-1H-[1,2,3]triazolo[4,5-c]pyridin-5(4H)-yl)methanone] |  | 2.9 | 51.5 | 50.1 | 8.3 | 316 |  |
| C[C@H]1c2nnn(-c3cncnc3)c2CCN1C(=O)c1cccc(C(F)(F)F)c1Cl [Example 333, (S)-(2-chloro-3-(trifluoromethyl)phenyl)(4-methyl-1-(pyrimidin-5-yl)-6,7-dihydro-1H-[1,2,3]triazolo[4,5-c]pyridin-5(4H)-yl)methanone] |  | 101 | > 10000 | 63.1 | 6.9 |  |  |

Second part, the compound after the results:

| Ki (rat P2X7 [1]) [nM] | IC50 (P2X7 [2]) [nM] | IC50 (rat P2X7 [3]) [nM] | Ki (P2X7 [4]) [nM] | PBMC 10 μM (% control) (P2X7 [5]) | IC50 (P2X7 [6]) [nM] | PBMC 1 μM (% control) (P2X7 [5]; compound 1 μM) | SMILES |
| --- | --- | --- | --- | --- | --- | --- | --- |
| 3.1 | 5.4 | 6.6 | 14.1 | −3.7 |  |  | Cc1ccnc(-n2nnc3c2CCN(C(=O)c2cccc(C(F)(F)F)c2Cl)[C@@H]3C)n1 [Example 235, (4R)-(2-Chloro-3-(trifluoromethyl)phenyl)(4-methyl-1-(4-methylpyrimidin-2-yl)-6,7-dihydro-1H-[1,2,3]triazolo[4,5-c]pyridin-5(4H)-yl)methanone] |
|  | 171 | 20200 | 398 | −1.8 |  |  | Cc1cc(C)nc(-n2nnc3c2CCN(C(=O)c2cccc(C(F)(F)F)c2Cl)C3C)c1 (stereo not drawn) [Example 300, (2-chloro-3-(trifluoromethyl)phenyl)(1-(4,6-dimethylpyridin-2-yl)-4-methyl-6,7-dihydro-1H-[1,2,3]triazolo[4,5-c]pyridin-5(4H)-yl)methanone] |
|  | 11.6 | 14.3 | 31.6 | −2.8 |  |  | Cc1cccc(-n2nnc3c2CCN(C(=O)c2cccc(C(F)(F)F)c2Cl)C3C)n1 (stereo not drawn) [Example 302, (2-chloro-3-(trifluoromethyl)phenyl)(4-methyl-1-(6-methylpyridin-2-yl)-6,7-dihydro-1H-[1,2,3]triazolo[4,5-c]pyridin-5(4H)-yl)methanone] |
|  | 217 | 3720 | 631 | −9.5 |  |  | CCc1nc2c(n1-c1ccccc1)CCN(C(=O)c1cccc(Cl)c1Cl)C2 [Example 332, (2,3-dichlorophenyl)(2-ethyl-1-phenyl-6,7-dihydro-1H-imidazo[4,5-c]pyridin-5(4H)-yl)methanone] |
|  | 289 | 2160 | 372 | −0.5 |  |  | Cc1ccc(-n2nnc3c2CCN(C(=O)c2cccc(Cl)c2Cl)C3C)nc1 (stereo not drawn) [Example 336, (2,3-dichlorophenyl)(4-methyl-1-(5-methylpyridin-2-yl)-6,7-dihydro-1H-[1,2,3]triazolo[4,5-c]pyridin-5(4H)-yl)methanone] |
